From paper PMC10769324 (bioRxiv, 2024)

Columns and labels:
5-HT2A [1] = molecular target: T1, 5-HT2A (Homo sapiens, UniProt P28223); assay type: binding; conditions: [3H]-LSD 0.5 nM, HEK293 membranes; for log(Ki): printed as log(Ki) with negative sign
5-HT2A [2] = molecular target: T1, 5-HT2A; conditions: Gαq dissociation vs β-arrestin2 recruitment, versus 5-HT

T1 sequence (P28223 whole entry): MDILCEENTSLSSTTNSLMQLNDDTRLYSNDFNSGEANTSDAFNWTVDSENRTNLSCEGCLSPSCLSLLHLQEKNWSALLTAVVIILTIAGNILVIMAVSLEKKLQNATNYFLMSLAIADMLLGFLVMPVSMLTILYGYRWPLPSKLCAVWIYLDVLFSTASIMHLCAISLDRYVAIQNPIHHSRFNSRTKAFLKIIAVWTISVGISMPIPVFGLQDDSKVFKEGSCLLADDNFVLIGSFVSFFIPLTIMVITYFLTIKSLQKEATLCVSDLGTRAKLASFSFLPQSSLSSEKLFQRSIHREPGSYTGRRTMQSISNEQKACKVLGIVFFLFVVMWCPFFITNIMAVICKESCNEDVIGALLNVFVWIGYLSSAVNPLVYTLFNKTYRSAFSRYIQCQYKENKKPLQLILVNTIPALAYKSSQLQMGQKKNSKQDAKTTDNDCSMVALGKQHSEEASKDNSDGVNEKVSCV

Row | Structure (SMILES) | Ki (5-HT2A [1]) | log(Ki) (5-HT2A [1]) | Apparent Bias Factor (5-HT2A [2])
1 | C=CCNC(=O)C(C)N1CCCC(c2ccc(O)cc2)C1 (stereo not shown) [Compound Z3517963976] | 113 nM | −6.95 ± 0.085 | 
2 | COc1ccccc1CC1CCN(CC(=O)c2cc(C)[nH]c2C)C1 (stereo not shown) [Compound Z7619689903] | 344 nM | −6.46 ± 0.086 | 
3 | C=C/C=C/CCN1CCC(O)(c2cccc(Br)c2)C1 (stereo not shown) [Compound Z5247693129] |  | −6.49 ± 0.094 | 
4 | COc1ccc(COCCN(C)C(C)Cc2ccc(O)cc2)cc1 (stereo not shown) [Compound Z1441676226] |  | −6.77 ± 0.087 | 
5 | Clc1ccc(C#CCN2CCCC(c3ccn[nH]3)C2)cc1 (stereo not shown) [Compound Z1348472291] |  | −6.65 ± 0.083 | 
6 | Oc1ccc(C2=CCN(CC3CC34CC4)CC2)cc1 (stereo not shown) [Compound Z2945615615] | 24 nM | −7.62 ± 0.104 | 
7 | c1ccc(O[C@H]2CCN(Cc3ccc(-c4ccn[nH]4)o3)C2)cc1 [Compound Z2449215308] | 162 nM | −6.79 ± 0.100 | 
8 | NC1Cc2ccccc2N(Cc2cc(O)cc(Br)c2)C1 (stereo not shown) [Compound Z7619689909] | 72 nM | −7.14 ± 0.078 | 
9 | NCCc1c[nH]c2ccc(O)cc12 [serotonin] |  |  | 1.0
10 | NCC1Cc2cc(F)ccc2N(C(=O)Cc2cc(F)ccc2Br)C1 (stereo not shown) [Compound Z7704262288] | 15 nM |  | 
11 | CCN(Cc1cc(Br)ccc1O)C(=O)C(N)Cc1ccco1 (stereo not shown) [Compound Z3865153101] | 114 nM | −6.94 ± 0.099 | 
12 | CC(C)C(N)CCN(C)C(=O)C(=O)Nc1cc2ccccc2cc1Cl (stereo not shown) [Compound Z5247694451] |  | −7.15 ± 0.073 | 
13 | Cc1cccc(OCCCC(=O)N2CCNCc3ccccc32)c1 [Compound Z2393190959] |  | −6.51 ± 0.085 | 
14 | CN(C(=O)c1cn[nH]n1)C1CCN(CCc2cccc(Cl)c2Cl)C1 (stereo not shown) [Compound Z7619689892] | 17 nM | −7.78 ± 0.077 | 
15 | O=C(c1cc(C2CCNC2)[nH]n1)N1CCC(c2cccc(Cl)c2)C1 (stereo not shown) [Compound Z3808146201] |  | −6.51 ± 0.096 | 
